For one assay, the system named is karpas 299 cells. As to the kind of experiment: Measurement of inhibition of cell proliferation (Karpas), ATPlite. The format is cell-based. How it is done:
Measurement of Inhibition of Cell Proliferation (Karpas):
The antiproliferative activities of the compounds were measured using the ATPlite technique (Perkin Elmer).
The non-adhering cells (karpas 299) are seeded in 96-well plates (300 000 cells/ml) on Day 1 at a concentration compatible with logarithmic growth for 72 hours required for evaluation of the compounds. All the cells are treated on Day 1, then placed in an incubator at 37° C. under 5% CO2 atmosphere. Cell viability is evaluated on Day 4 by assay of released ATP, characteristic of viable cells. The IC50 values are determined by non-linear regression on the basis of a sigmoid model of dose/response relationship, Hill's slope coefficient being left variable, performed using GraphPad software sequence with the supplied algorithm.

In a further assay the target is ALK kinase (Homo sapiens, UniProt Q9UM73). As to the kind of experiment: Test to measure ALK kinase inhibition (GST-PLCγ1 substrate, anti-phosphotyrosine ELISA, luminescence). It is filed as biochemical. Conditions: ALK kinase 180 ng/ml, 250 μM ATP, 30 minutes at 30° C. On the procedure:
Test to Measure ALK Kinase Inhibition
A ViewPlate (Packard) is incubated with the GST-PLCγ1 substrate (purified recombinant form) at 0.1 mg/ml in phosphate buffer (PBS pH 7.4)(100 μl/well) for one hour under shaking. The plate is then saturated with a blocking solution containing 5% bovine serum albumin (BSA) (SIGMA) in PBS buffer pH 7.4.
After adding the inhibitor at the desired final concentration (usual range of 30 μM to 10 nM), the reaction is conducted by adding the ALK kinase at 180 ng/ml in 13 mM Tris reaction buffer pH 7.5 (SIGMA); 6.5 mM MgCl2 (MERCK); 0.65 mM DiThioThreitol (DTT) (ACROS); 39 mM sodium β-glycerophosphate (TCI); 0.65 mM sodium orthovanadate (SIGMA) and 250 μM ATP (SIGMA). Incubation is carried out for 30 minutes at 30° C. under shaking.
After three washings under shaking in 0.1% PBS/Tween-20 buffer (SIGMA), an anti-phosphotyrosine antibody coupled with HRP (UBI) diluted to 1/1000th in PBS/BSA buffer 5 mg/ml, is incubated for one hour under shaking. After three further washings in 0.1% PBS/Tween-20, the wells are incubated two minutes with 100 μl of SuperSignal ELISA mixture (PIERCE).
The signal is read in luminescent mode using a luminometer (MOLECULAR DEVICES SpectraMax M5e).
Background: In an ELISA, binding on a coated surface is turned into a signal by an enzyme label.

Consider 45 molecules from patent US8889711B2, “Pyrazolopyridine derivatives as anticancer agent” (Pierre Fabre Medicament, priority 2009, dated 2014).

ALK kinase, sequence (Q9UM73 19-1620): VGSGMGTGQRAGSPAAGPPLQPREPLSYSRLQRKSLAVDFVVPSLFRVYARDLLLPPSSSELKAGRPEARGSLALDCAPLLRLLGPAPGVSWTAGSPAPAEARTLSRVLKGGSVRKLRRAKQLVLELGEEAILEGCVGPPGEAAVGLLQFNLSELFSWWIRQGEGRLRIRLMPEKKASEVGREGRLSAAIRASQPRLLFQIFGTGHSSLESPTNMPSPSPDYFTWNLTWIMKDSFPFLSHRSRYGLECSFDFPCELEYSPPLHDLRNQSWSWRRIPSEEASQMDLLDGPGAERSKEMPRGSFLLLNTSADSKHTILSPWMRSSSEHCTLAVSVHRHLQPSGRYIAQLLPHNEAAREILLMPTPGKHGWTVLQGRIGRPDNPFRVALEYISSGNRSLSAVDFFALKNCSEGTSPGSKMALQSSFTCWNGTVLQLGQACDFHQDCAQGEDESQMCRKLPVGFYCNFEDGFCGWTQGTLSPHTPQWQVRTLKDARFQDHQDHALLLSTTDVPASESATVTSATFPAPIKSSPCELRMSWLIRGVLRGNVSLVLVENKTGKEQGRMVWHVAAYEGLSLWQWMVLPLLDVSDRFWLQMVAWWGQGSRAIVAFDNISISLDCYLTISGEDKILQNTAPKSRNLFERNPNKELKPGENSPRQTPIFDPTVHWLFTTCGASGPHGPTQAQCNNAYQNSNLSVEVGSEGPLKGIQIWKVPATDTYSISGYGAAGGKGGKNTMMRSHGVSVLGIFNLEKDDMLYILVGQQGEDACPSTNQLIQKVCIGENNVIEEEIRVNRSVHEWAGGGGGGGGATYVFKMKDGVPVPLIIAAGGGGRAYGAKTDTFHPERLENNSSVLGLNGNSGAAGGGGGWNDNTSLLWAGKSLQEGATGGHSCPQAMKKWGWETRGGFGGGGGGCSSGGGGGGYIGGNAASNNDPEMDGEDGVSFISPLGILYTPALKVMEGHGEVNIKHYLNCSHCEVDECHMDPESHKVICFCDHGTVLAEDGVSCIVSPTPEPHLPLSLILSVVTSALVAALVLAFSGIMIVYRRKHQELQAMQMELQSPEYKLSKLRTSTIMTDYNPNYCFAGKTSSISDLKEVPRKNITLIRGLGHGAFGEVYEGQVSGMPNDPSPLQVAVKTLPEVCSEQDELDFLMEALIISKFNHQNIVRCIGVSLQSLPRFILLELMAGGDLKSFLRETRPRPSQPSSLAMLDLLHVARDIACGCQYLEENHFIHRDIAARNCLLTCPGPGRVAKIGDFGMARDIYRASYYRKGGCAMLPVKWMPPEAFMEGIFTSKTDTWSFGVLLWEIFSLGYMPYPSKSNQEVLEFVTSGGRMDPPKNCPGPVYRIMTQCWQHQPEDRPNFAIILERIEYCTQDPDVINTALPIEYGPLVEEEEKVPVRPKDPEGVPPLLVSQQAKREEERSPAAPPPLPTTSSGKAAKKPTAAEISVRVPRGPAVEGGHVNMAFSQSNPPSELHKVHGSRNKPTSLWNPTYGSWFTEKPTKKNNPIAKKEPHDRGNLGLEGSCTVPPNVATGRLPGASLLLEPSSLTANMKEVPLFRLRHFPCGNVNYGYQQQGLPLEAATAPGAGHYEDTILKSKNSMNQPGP

Take `Cc1cc(-c2nc3[nH]nc(C)c3c(-c3ccc(N4CCNCC4)cc3)c2C#N)ccc1O` [Compound 176]: the IC50 (as a rule, the concentration needed to halve the response being measured) in the assay on karpas 299 cells (Homo sapiens, KARPAS-299, 72 h) was 0.1 to 1 µM; against ALK kinase, 0.1 to 1 µM.
On to `COc1cc(-c2c(C#N)c(-c3ccc(O)cc3F)nc3[nH]nc(C)c23)ccc1OCCCN(C)C` [Compound 177], for which the 50% inhibitory concentration (IC50) is 1 to 10 µM in the assay on karpas 299 cells (Homo sapiens, KARPAS-299, 72 h) and 0.1 to 1 µM on ALK kinase.
In the same order, the values of `Cc1n[nH]c2nc(-c3ccc(O)cc3F)c(C#N)c(-c3ccc(OCCCN(C)C)cc3)c12` [Compound 178] are 0.1 to 1 µM and below 0.1 µM.
In the case of `Cc1n[nH]c2nc(-c3ccc(O)c(Cl)c3)c(C#N)c(-c3ccc(N4CCNCC4)cc3)c12` [Compound 180], the concentration for half-maximal inhibition (IC50) was 0.1 to 1 µM with karpas 299 cells (Homo sapiens, KARPAS-299, 72 h) and below 0.1 µM against ALK kinase.
As to `N#Cc1c(-c2ccc(O)cc2F)nc2[nH]nc(N)c2c1-c1ccc(N2CCNCC2)cc1F` [Compound 181], the IC50 was 1 to 10 µM with karpas 299 cells (Homo sapiens, KARPAS-299, 72 h) and below 0.1 µM on ALK kinase.
Turning to `Cc1n[nH]c2nc(-c3ccc(O)cc3F)c(C#N)c(-c3ccc(N4CCNCC4)cc3)c12` [Compound 182], the IC50 in the assay on karpas 299 cells (72 hours) was 1 to 10 µM; on ALK kinase, below 0.1 µM.
Take `N#Cc1c(-c2ccc(O)cc2F)nc2[nH]nc(N)c2c1-c1ccc(N2CCOCC2)o1` [Compound 183]: the IC50 in the assay on karpas 299 cells (Homo sapiens, KARPAS-299, 72 h) is 1 to 10 µM; on ALK kinase, below 0.1 µM.
On the same counts, the results for `Cc1n[nH]c2nc(-c3ccc(O)cc3F)c(C#N)c(-c3ccc(N4CCN(C)CC4)s3)c12` [Compound 184] are 0.1 to 1 µM and below 0.1 µM.
On the same counts, the results for `N#Cc1c(-c2ccc(O)cc2F)nc2[nH]nc(N)c2c1-c1ccc(C2=CCNCC2)cc1` [Compound 186] are 1 to 10 µM and below 0.1 µM.
As for `Cc1cc(-c2nc3[nH]nc(N)c3c(-c3ccc(N4CCNCC4)cc3)c2C#N)ccc1O` [Compound 187], the half-maximal inhibitory concentration (IC50) in the assay on karpas 299 cells (Homo sapiens, KARPAS-299, 72 h) is 1 to 10 µM; at ALK kinase, below 0.1 µM.
On the same counts, the results for `N#Cc1c(-c2ccc(O)cc2F)nc2[nH]nc(N)c2c1-c1ccc(N2CC[C@H](N)C2)cc1` [Compound 188] are 1 to 10 µM and below 0.1 µM.
On the same counts, the results for `Cc1cc(O)ccc1-c1nc2[nH]nc(C)c2c(-c2ccc(N3CCNCC3)cc2)c1C#N` [Compound 189] are 1 to 10 µM and 0.1 to 1 µM.
In the same order, the values of `N#Cc1c(-c2ccc(O)cc2F)nc2[nH]nc(N)c2c1-c1ccc(N2CCC(N)CC2)o1` [Compound 190] are 1 to 10 µM and below 0.1 µM.
As for `CN(C)CCCN(C)c1ccc(-c2c(C#N)c(-c3ccc(O)cc3F)nc3[nH]nc(N)c23)cc1` [Compound 191], the IC50 with karpas 299 cells (Homo sapiens, KARPAS-299, 72 h) is 1 to 10 µM; against ALK kinase it was below 0.1 µM.
In the same order, the values of `N#Cc1c(-c2ccc(O)c(Cl)c2)nc2[nH]nc(N)c2c1-c1ccc(N2CCNCC2)cc1` [Compound 192] are 1 to 10 µM and below 0.1 µM.
In the same order, the values of `N#Cc1c(-c2ccc(O)cc2F)nc2[nH]nc(N)c2c1-c1ccc(N2CCNCC2)c(F)c1` [Compound 193] are 1 to 10 µM and below 0.1 µM.
On to `CN(C)CCCOc1ccc(-c2c(C#N)c(-c3ccc(O)cc3F)nc3[nH]nc(N)c23)cc1` [Compound 194], for which the half-maximal inhibitory concentration (IC50) in the assay with karpas 299 cells (Homo sapiens, KARPAS-299, 72 h) is 0.1 to 1 µM; against ALK kinase, below 0.1 µM.
On the same counts, the results for `N#Cc1c(-c2ccc(O)cc2F)nc2[nH]nc(N)c2c1-c1ccc(C2CCNCC2)cc1` [Compound 195] are 1 to 10 µM and below 0.1 µM.
Take `N#Cc1c(-c2ccc(O)cc2F)nc2[nH]nc(-c3cccs3)c2c1-c1ccc(N2CCNCC2)cc1` [Compound 196]: the IC50 in the assay on karpas 299 cells (Homo sapiens, KARPAS-299, 72 h) fell in the range of 0.1 to 1 µM; on ALK kinase, 1 to 10 µM.
For the molecule `N#Cc1c(-c2ccc(O)cc2F)nc2[nH]nc(-c3ccco3)c2c1-c1ccc(N2CCNCC2)cc1` [Compound 197], the IC50 in the assay on karpas 299 cells (Homo sapiens, KARPAS-299, 72 h) was 0.1 to 1 µM; on ALK kinase it was below 0.1 µM.
On the same counts, the results for `COc1ccc(-c2n[nH]c3nc(-c4ccc(O)cc4F)c(C#N)c(-c4ccc(N5CCNCC5)cc4)c23)cc1` [Compound 198] are 0.1 to 1 µM and below 0.1 µM.
In the same order, the values of `N#Cc1c(-c2cc(Cl)c(O)cc2F)nc2[nH]nc(N)c2c1-c1ccc(N2CCNCC2)cc1` [Compound 199] are above 10 µM and below 0.1 µM.
`N#Cc1c(-c2ccc(O)cc2F)nc2[nH]nc(N)c2c1-c1ccc(N2CCC(N3CCCC3)CC2)cc1` [Compound 200]: the concentration for half-maximal inhibition (IC50) is 0.1 to 1 µM in the assay on karpas 299 cells (Homo sapiens, KARPAS-299, 72 h) and below 0.1 µM on ALK kinase.
On the same counts, the results for `N#Cc1c(-c2ccc(O)cc2F)nc2[nH]nc(-c3ccncc3)c2c1-c1ccc(N2CCNCC2)cc1` [Compound 201] are above 10 µM and below 0.1 µM.
On the same counts, the results for `COc1cc(-c2c(C#N)c(-c3ccc(O)cc3F)nc3[nH]nc(N)c23)ccc1N1CCNCC1` [Compound 202] are above 10 µM and 0.1 to 1 µM.
On the same counts, the results for `N#Cc1c(-c2ccc(O)cc2F)nc2[nH]nc(N)c2c1-c1ccc(OCCCN2CCCCC2)cc1` [Compound 203] are 1 to 10 µM and 0.1 to 1 µM.
`Cc1n[nH]c2nc(-c3ccc(O)cc3F)c(C#N)c(-c3ccc(N4CCNCC4)s3)c12` [Compound 204]: the IC50 is 0.1 to 1 µM in the assay with karpas 299 cells (Homo sapiens, KARPAS-299, 72 h) and below 0.1 µM on ALK kinase.
On the same counts, the results for `N#Cc1c(-c2ccc(O)cc2F)nc2[nH]nc(-c3ccccc3)c2c1-c1ccc(N2CCNCC2)cc1` [Compound 206] are 0.1 to 1 µM and below 0.1 µM.
On the same counts, the results for `Cc1n[nH]c2nc(-c3ccc(NS(C)(=O)=O)cc3F)c(C#N)c(-c3ccc(N4CCNCC4)cc3)c12` [Compound 208] are above 10 µM and 1 to 10 µM.
For `Cc1n[nH]c2nc(-c3ccc(O)cc3F)c(C#N)c(-c3ccc(N4CCNCC4)c([N+](=O)[O-])c3)c12` [Compound 209], the IC50 fell in the range of 1 to 10 µM in the assay on karpas 299 cells (Homo sapiens, KARPAS-299, 72 h) and 0.1 to 1 µM against ALK kinase.
With `CN(C)CCOc1ccc(-c2c(C#N)c(-c3ccc(O)cc3F)nc3[nH]nc(N)c23)cc1` [Compound 210], the IC50 in the assay with karpas 299 cells (Homo sapiens, KARPAS-299, 72 h) fell in the range of 1 to 10 µM; against ALK kinase it was 0.1 to 1 µM.
On the same counts, the results for `N#Cc1c(-c2ccc(O)cc2F)nc2[nH]nc(N)c2c1-c1ccc(OCCCN2CCNCC2)cc1` [Compound 211] are above 10 µM and 0.1 to 1 µM.
On the same counts, the results for `N#Cc1c(-c2c(F)ccc(F)c2F)nc2[nH]nc(N)c2c1-c1ccc(N2CCNCC2)cc1` [Compound 212] are above 10 µM and 1 to 10 µM.
Turning to `Cc1n[nH]c2nc(-c3ccc(O)cc3F)c(C#N)c(-c3ccc(OCCCN4CCNCC4)cc3)c12` [Compound 213], the IC50 with karpas 299 cells (Homo sapiens, KARPAS-299, 72 h) is 1 to 10 µM; against ALK kinase, below 0.1 µM.
In the same order, the values of `COC(=O)c1c(-c2ccc(O)cc2)nc2[nH]nc(C)c2c1-c1ccc(C)o1` [Compound 215] are 0.1 to 1 µM and below 0.1 µM.
In the same order, the values of `Cc1n[nH]c2nc(-c3cc(Cl)ccc3F)c(C#N)c(-c3ccc(N4CCNCC4)cc3)c12` [Compound 217] are 1 to 10 µM and 1 to 10 µM.
In the same order, the values of `N#Cc1c(-c2ccc(O)cc2F)nc2[nH]nc(-c3ccc(F)cc3)c2c1-c1ccc(N2CCNCC2)cc1` [Compound 218] are 1 to 10 µM and below 0.1 µM.
Regarding `N#Cc1c(-c2ccccc2)nc2[nH]nc(-c3cccs3)c2c1-c1ccc(N2CCNCC2)cc1` [Compound 219], the IC50 with karpas 299 cells (Homo sapiens, KARPAS-299, 72 h) fell in the range of 1 to 10 µM; on ALK kinase, 1 to 10 µM.
Take `N#Cc1c(-c2c(F)ccc(F)c2F)nc2[nH]nc(-c3cccs3)c2c1-c1ccc(N2CCNCC2)cc1` [Compound 221]: the IC50 is 1 to 10 µM in the assay on karpas 299 cells (Homo sapiens, KARPAS-299, 72 h) and 0.1 to 1 µM at ALK kinase.
On the same counts, the results for `CNc1ccc(-c2nc3[nH]nc(C)c3c(-c3ccc(N4CCNCC4)cc3)c2C#N)c(F)c1` [Compound 222] are above 10 µM and 1 to 10 µM.
Take `CCOC(=O)c1c(-c2ccc(O)cc2)nc2[nH]nc(C)c2c1-c1ccc(C)o1` [Compound 223]: the IC50 with karpas 299 cells (Homo sapiens, KARPAS-299, 72 h) was 0.1 to 1 µM; against ALK kinase, below 0.1 µM.
In the same order, the values of `Cc1n[nH]c2nc(-c3ccc(O)cc3F)c(C#N)c(-c3ccc(N4CCNCC4)c(N)c3)c12` [Compound 226] are 1 to 10 µM and 0.1 to 1 µM.
On the same counts, the results for `Cc1n[nH]c2nc(-c3c(F)ccc(Cl)c3F)c(C#N)c(-c3ccc(N4CCNCC4)cc3)c12` [Compound 228] are 1 to 10 µM and 0.1 to 1 µM.
In the same order, the values of `CC(C)(C)c1n[nH]c2nc(-c3ccc(O)cc3F)c(C#N)c(-c3ccc(N4CCNCC4)cc3)c12` [Compound 230] are 1 to 10 µM and 0.1 to 1 µM.
In the case of `N#Cc1c(-c2cccc(O)c2)nc2[nH]nc(-c3cccs3)c2c1-c1ccc(N2CCNCC2)cc1` [Compound 231], the IC50 with karpas 299 cells (Homo sapiens, KARPAS-299, 72 h) was 1 to 10 µM; at ALK kinase, 1 to 10 µM.
